Some results are limits rather than exact numbers.

For data set [1], the system named is HCT116 cells. Description: Cell cycle analysis by image cytometry (DAPI). To be noted: 24 h, preliminary.
Protocol: Cell cycle profiles of HCT116 cells were determined with an NC-3000 image cytometer (ChemoMetec, Allerod, Denmark) in accordance with manufacturer’s protocol. Briefly, cells were seeded at 200,000 cells/well on a 6-well plate for 24 h. […] After incubation for 24 h, 100,000 cells were harvested and centrifuged at 400 g at room temperature for 5 min, washed once with PBS (50 μM), and resuspended in lysis buffer (50 μl) (ChemoMetec, Allerod, Denmark) containing 10 μg/ml of 2-(4-amidinophenyl)-1H-indole-6-carboxamidine (DAPI, ChemoMetec, Allerod, Denmark). […] The cellular fluorescence was measured with an NC-3000 image cytometer using NC-SlideA8 (ChemoMetec, Allerod, Denmark). The NC-3000 software (ChemoMetec, Allerod, Denmark) was used for image acquisition, image analysis and quantification, and data visualization.
Data set [2] concerns HCT116 cells. Put plainly: Cell proliferation assay (MTT), HCT116. To be noted: for IC50: Homo sapiens, HCT-116, 72 h, read-out: IC50 HCT116.
Protocol: (§2) Serial dilutions of indicated compounds were added and incubated for additional 72 h. At the end of the incubation, cell viability was determined by the 3-(4,5-dimethylthiazol-2-yl)-2,5-diphenyl tetrazolium bromide (MTT) assay. The MTT formazan crystals formed were dissolved in DMSO, and the absorbance at 570 nm was recorded using a microplate spectrophotometer (Thermo Fisher Scientific, Waltham, MA, USA) [46].
Another data set deals with NCI-H460 cells. Put plainly: Cell proliferation assay (MTT), NCI-H460. To be noted: for IC50: Homo sapiens, NCI-H460, 72 h, read-out: IC50 NCI-H460.
For the next data set, the system named is 786-O cells. Description: Cell proliferation assay (MTT), 786-O. The settings on record: for IC50: Homo sapiens, 786-0, 72 h, read-out: IC50 786-O.
The next data set deals with T1, Aurora A (Homo sapiens, UniProt O14965).
T1 sequence (O14965 1-403): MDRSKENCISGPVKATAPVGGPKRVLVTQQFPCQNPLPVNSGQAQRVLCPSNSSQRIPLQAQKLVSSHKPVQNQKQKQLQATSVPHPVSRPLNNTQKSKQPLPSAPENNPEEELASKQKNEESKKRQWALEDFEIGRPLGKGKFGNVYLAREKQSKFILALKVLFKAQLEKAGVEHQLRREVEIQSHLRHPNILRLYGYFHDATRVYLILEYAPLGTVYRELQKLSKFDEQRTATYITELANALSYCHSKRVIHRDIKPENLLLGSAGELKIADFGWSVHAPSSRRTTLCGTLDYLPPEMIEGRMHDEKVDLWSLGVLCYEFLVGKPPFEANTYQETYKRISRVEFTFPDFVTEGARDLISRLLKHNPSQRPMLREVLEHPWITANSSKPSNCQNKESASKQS
Put plainly: In-vitro kinase assay (HotSpot, 33P), Aurora A. To be noted: ATP 10.0 μM; for % inhibition of Aurora A at 1.0 μM: 1.0 μM compound; for inhibition at 1 µM: read-out: % inhibition of Aurora A at 1.0 μM, 1.0 μM compound.

For the next data set, the target named is VEGFR-2 (Homo sapiens, UniProt P35968). Put plainly: In-vitro kinase assay (HotSpot, 33P), VEGFR-2. To be noted: for inhibition at 0.08 µM: read-out: % inhibition of VEGFR-2 at 80 nM.
Sequence of VEGFR-2 (P35968 20-1356): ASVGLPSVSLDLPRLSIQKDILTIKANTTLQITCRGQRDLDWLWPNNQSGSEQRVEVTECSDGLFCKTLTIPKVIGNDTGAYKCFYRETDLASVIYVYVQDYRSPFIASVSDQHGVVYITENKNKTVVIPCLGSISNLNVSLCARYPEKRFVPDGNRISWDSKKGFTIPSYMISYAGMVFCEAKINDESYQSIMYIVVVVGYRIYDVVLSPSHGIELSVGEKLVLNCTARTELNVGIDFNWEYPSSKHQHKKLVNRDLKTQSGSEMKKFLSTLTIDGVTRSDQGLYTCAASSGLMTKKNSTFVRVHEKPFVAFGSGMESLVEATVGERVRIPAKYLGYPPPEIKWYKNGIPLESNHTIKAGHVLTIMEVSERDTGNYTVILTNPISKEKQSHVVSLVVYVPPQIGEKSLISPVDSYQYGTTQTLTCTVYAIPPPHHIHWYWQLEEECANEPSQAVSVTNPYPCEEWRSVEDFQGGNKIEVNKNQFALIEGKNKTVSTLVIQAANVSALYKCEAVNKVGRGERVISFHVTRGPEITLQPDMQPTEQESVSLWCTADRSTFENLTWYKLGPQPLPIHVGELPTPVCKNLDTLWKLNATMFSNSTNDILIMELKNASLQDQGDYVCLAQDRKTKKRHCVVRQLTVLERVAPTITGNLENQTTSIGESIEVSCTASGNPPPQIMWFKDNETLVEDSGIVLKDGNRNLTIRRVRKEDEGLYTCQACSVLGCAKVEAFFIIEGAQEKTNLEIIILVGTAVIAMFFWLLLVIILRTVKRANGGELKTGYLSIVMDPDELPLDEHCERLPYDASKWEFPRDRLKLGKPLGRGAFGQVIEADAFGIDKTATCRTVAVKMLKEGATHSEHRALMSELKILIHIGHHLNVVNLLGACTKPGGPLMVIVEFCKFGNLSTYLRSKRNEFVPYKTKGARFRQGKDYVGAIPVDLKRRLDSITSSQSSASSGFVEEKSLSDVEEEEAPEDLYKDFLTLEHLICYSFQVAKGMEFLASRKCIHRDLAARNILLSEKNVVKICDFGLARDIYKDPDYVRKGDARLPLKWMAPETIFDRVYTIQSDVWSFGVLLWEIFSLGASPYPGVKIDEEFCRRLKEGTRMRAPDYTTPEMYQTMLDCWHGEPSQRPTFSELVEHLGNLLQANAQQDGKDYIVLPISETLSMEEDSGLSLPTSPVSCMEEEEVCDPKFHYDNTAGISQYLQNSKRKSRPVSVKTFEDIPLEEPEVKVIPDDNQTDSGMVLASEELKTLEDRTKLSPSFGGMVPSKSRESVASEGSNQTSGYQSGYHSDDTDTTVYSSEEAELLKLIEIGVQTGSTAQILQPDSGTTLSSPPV
For a further data set, the target named is PDGFRβ (Homo sapiens, UniProt P09619). Description: In-vitro kinase assay (HotSpot, 33P), PDGFRβ.
Sequence of PDGFRβ (P09619 33-1106): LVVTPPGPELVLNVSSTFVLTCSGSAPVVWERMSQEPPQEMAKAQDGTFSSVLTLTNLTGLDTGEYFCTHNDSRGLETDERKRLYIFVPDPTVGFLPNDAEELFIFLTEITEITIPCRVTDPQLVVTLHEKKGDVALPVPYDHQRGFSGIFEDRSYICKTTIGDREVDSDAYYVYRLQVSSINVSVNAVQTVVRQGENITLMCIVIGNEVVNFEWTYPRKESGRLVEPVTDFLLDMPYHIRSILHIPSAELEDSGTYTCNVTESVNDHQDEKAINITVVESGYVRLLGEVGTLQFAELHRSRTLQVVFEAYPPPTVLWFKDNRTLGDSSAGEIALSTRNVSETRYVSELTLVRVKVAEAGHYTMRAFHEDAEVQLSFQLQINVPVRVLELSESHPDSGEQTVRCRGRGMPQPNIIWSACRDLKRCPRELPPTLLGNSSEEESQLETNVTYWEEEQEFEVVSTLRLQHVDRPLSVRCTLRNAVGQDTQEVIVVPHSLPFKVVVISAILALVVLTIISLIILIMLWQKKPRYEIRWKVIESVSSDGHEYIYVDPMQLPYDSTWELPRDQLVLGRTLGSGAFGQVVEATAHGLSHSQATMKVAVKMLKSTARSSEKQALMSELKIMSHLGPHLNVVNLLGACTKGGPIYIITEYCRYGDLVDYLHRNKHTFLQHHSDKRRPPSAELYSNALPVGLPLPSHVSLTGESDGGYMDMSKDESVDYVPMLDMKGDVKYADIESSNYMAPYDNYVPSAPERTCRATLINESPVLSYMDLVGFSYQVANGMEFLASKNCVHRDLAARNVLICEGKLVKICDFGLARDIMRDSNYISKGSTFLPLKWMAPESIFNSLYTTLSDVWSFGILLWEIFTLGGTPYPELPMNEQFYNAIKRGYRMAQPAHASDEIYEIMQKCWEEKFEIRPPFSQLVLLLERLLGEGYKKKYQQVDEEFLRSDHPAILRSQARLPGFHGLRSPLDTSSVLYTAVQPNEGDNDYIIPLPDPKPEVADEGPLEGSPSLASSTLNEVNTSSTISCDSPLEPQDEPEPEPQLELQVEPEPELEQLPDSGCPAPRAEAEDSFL
Data set [3] deals with Detroit 551 cells. Put plainly: Cell proliferation assay (MTT), normal fibroblast Detroit 551. To be noted: Homo sapiens, Detroit 551, 72 h, read-out: IC50 Detroit 551.
Protocol: as §2
Data set [4] concerns HCT116 cells. To be noted: 10 μM, 6 h, WST-8. On the procedure:
(§1) Cells were seeded at 5000 cells/well on a 96-well plate for 24 h. The indicated compounds in different concentrations (100 μl) were added to cells. After 6 h, old medium was aspirated, and the cells were washed three times with PBS. WST-8 (Dojindo, Rockville, MD, USA) (10 µl) was added to each well, and the absorbance of the plate was recorded at 450 nm on a microplate spectrophotometer (Thermo Fisher Scientific, Waltham, MA, USA).
(Tetrazolium assays rely on reduction of a dye to a coloured formazan, in cell work by metabolically active cells.)

Data set [5] has as its system Detroit 551 cells. The settings on record: 10 μM, 6 h, WST-8. As to the method:
as §1

For a further data set, the system named is HUVEC cells. Put plainly: In-vitro VEGF-induced Matrigel tube formation assay. In kind it is cell-based, human. To be noted: for IC50: Homo sapiens, HUVEC, VEGF 10 ng/ml, Matrigel, 6 h, read-out: IC50 Area (in vitro tube formation); for potency in inhibiting in vitro tube formation relative to sunitinib in terms of IC50: versus sunitinib. As to the method:
The in vitro tube formation assay was assessed using ibidi μ-Slides (15-well, ibidi GmbH, Martinsried, Germany) in accordance with manufacturer’s protocol. Briefly, growth factor reduced Matrigel (10 μl) (Sigma, St. Louis MO) was added to the inner well of ibidi μ-Slides, and incubated at 37 °C for 1 h. […] 10,000 HUVEC cells in 50 μl of above growth medium was added to Matrigel (Sigma, St. Louis MO, USA) coated ibidi μ-Slides. After 6 h of incubation at 37 °C, the supernatant was discarded, and 50 μl of serum-free medium with diluted calcein AM (6.25 μg/ml) was added to above ibidi μ-Slides. After incubation in the dark at room temperature for 30 min, the μ-Slides were washed with PBS (50 μl) and fluorescence pictures were taken at 485 nm with a Leica DM1000 LED microscope (Leica Microsystems, Wetzlar, Hessen, Germany).

Data set [6] concerns HCT116 cells. The settings on record: VEGFR-1/2 inhibitor; cited from earlier work.
Data set [7] can be described thus: Preliminary pharmacokinetic studies. The settings on record: no data shown.
Data set [8] concerns patients with advanced colorectal cancer. The arrangement: method as in earlier work. To be noted: Phase IIb, cited from earlier work.

Protocol for 786-O cells: as §2
Protocol for Aurora A: (§3) Briefly, specific kinase and substrate and required cofactors were prepared in reaction buffer. Test compounds were added to the reaction and after 20 min a mixture of ATP (Sigma, St. Louis MO, USA) and ^33P ATP (Perkin Elmer, Waltham MA, USA) was added to make a final concentration of 10.0 μM. Reactions were stood at room temperature for 120 min, and then the reactions were spotted onto a P81 ion exchange filter paper (Whatman Inc., Piscataway, NJ, USA). Unbound phosphate was removed by extensive washing of filters in 0.1% phosphoric acid. Kinase activity data was reported as the percent remaining kinase activity in test compounds compared to the solvent control dimethyl sulfoxide (DMSO).
Protocol for NCI-H460 cells: as §2
Protocol for VEGFR-2: Next, the VEGFR-2 phosphorylation inhibitory activities of the newly synthesized compounds were evaluated.
as §3

On to `CCN(CC)CCN1Cc2[nH]c(/C=C3\C(=O)Nc4ccc(S(=O)(=O)N(CCCl)CCCl)cc43)c(C)c2C1=O` [Compound 7, (Z)-N,N-Bis(2-chloroethyl)-3-((5-(2-(diethylamino)ethyl)-3-methyl-4-oxo-1,4,5,6-tetrahydropyrrolo[3,4-b]pyrrol-2-yl)methylene)-2-oxoindoline-5-sulfonamide], for which, in the data set with HCT116 cells [1] (5.0 μM), the “cell cycle profile effect” value is “increase in polyploid cells”. Moreover, the IC50 is 3650 ± 190 nM in the data set on HCT116 cells [2]; above 10000 nM with NCI-H460 cells; above 10000 nM with 786-O cells; 23.7 nM against VEGFR-2; 63.2 nM against PDGFRβ; 6060 ± 400 nM with Detroit 551 cells [3]. In the data set on HUVEC cells, the IC50 came out at 760 ± 110 nM. In addition, the “selective index (SI) HCT116” value with HCT116 cells [2] (versus Detroit 551) stood at 1.66. The “selective index (SI) NCI-H460” value in the data set on NCI-H460 cells (versus Detroit 551) is reported as below 0.61. In addition, the “selective index (SI) 786-O” value in the data set on 786-O cells (versus Detroit 551) is reported as below 0.61. In addition, at Aurora A, the “% inhibition of Aurora A at 1.0 μM” value stood at 94.4%. Besides, the inhibition at 1 µM on Aurora A was 92.9%. At VEGFR-2, the inhibition at 0.08 µM was 46%. Further, the “acute cytotoxicity, HCT116” value in the data set with HCT116 cells [4] is on record as “neither our compounds nor sunitinib had acute cytotoxicity”. Further, in the data set on Detroit 551 cells [5], the “acute cytotoxicity, Detroit 551” value is “neither our compounds nor sunitinib had acute cytotoxicity”. Besides, in the data set with HUVEC cells, the “potency in inhibiting in vitro tube formation relative to sunitinib in terms of IC50” value is given as “twofold higher”.
On to `O=C(Nc1cccc(C(F)(F)F)c1)c1ccccc1NCc1ccncc1` [AAL993], for which the “proliferation of HCT116 cells” value in the data set with HCT116 cells [6] is listed as “significantly decreases proliferation”.
As for `CCN(CC)CCN1Cc2[nH]c(/C=C3\C(=O)Nc4ccc(O)cc43)c(C)c2C1=O` [Compound 14, (Z)-3-((5-(2-(diethylamino)ethyl)-3-methyl-4-oxo-1,4,5,6-tetrahydropyrrolo[3,4-b]pyrrol-2-yl)methylene)-5-hydroxyindolin-2-one], the melting point lay in the range of 240 to 242 °C. The “cell cycle profile effect” value with HCT116 cells [1] (3.0 μM) is “G0/G1 cell cycle arrest”. Also, the half-maximal inhibitory concentration (IC50) in the data set with HCT116 cells [2] came to 2830 ± 400 nM. The IC50 in the data set on NCI-H460 cells is above 10000 nM. Also, the IC50 in the data set with 786-O cells is above 10000 nM. On Aurora A, the inhibition at 1 µM was determined as 93.6%. Besides, the “preliminary results in pharmacokinetic studies” value in data set [7] was “satisfactory”. Also, at VEGFR-2, it took 25.9 nM to reach half-maximal inhibition (IC50) and the inhibition at 0.08 µM was 58%. On PDGFRβ, this compound gave an IC50 of 28.5 nM. In addition, the IC50 with Detroit 551 cells [3] is above 10000 nM. For the same compound, in the data set with HUVEC cells, the IC50 is 620 ± 70 nM and the “potency in inhibiting in vitro tube formation relative to sunitinib in terms of IC50” value was “roughly 2.5 fold”.
Turning to `CCN(CC)CCN1Cc2[nH]c(/C=C3\C(=O)Nc4ccc(S)cc43)c(C)c2C1=O` [Compound 15, (Z)-3-((5-(2-(diethylamino)ethyl)-3-methyl-4-oxo-1,4,5,6-tetrahydropyrrolo[3,4-b]pyrrol-2-yl)methylene)-5-mercaptoindolin-2-one], the melting point is 257 to 260 °C. Also, the “cell cycle profile effect” value in the data set on HCT116 cells [1] (3.0 μM) is recorded as “increase in tetraploid cells”. In the data set on HCT116 cells [2], the IC50 came out at 2340 ± 200 nM. The IC50 in the data set with NCI-H460 cells is above 10000 nM. For the same compound, the IC50 in the data set with 786-O cells is above 10000 nM. Moreover, on Aurora A, the “% inhibition of Aurora A at 1.0 μM” value was 96.4% and the inhibition at 1 µM amounted to 93.6%. The “preliminary results in pharmacokinetic studies” value in data set [7] is “satisfactory”. Also, on VEGFR-2, half-maximal inhibition (IC50) required 14.6 nM and the inhibition at 0.08 µM amounted to 57%. Moreover, the IC50 at PDGFRβ was determined as 12.1 nM. Further, the IC50 in the data set with Detroit 551 cells [3] is above 10000 nM. The IC50 with HUVEC cells stood at 530 ± 110 nM.
On to `CCN(CC)CCN1CCc2[nH]c(/C=C3\C(=O)Nc4ccc(F)cc43)c(C)c2C1=O` [famitinib], for which the “progression free survival (PFS)” value in [8] (compared to placebo) is given as “significantly improved progression free survival (PFS)”. In addition, the toxicity result in [8] is listed as “manageable”.

By IC50 is commonly meant the concentration at which inhibition is half-maximal. What is called inhibition is the percentage by which the read-out fell short of the control. One may read the melting point as the temperature, or range, at which the solid turns liquid.

The values above are taken from PMC5539068, “Structural optimization and evaluation of novel 2-pyrrolidone-fused (2-oxoindolin-3-ylidene)methylpyrrole derivatives as potential VEGFR-2/PDGFRβ inhibitors” (Chemistry Central Journal, 2017).
